Reference: US12187758B2 (ROME Therapeutics, Inc., priority 2022, dated 2025)

Tests used:
[1] = test system: interferon-stimulated gene (ISG) response; assay: B6/JGpt-Trex1em1Cd1194/Gpt mouse model (ISG score); type: in vivo; conditions: B6/JGpt-Trex1em1Cd1194/Gpt mice, 100 mg/kg p.o. daily for 5 days
Experimental: Exemplary compounds were tested for the ability to alter the interferon-stimulated gene (ISG) response in a B6/JGpt-Trex1em1Cd1194/Gpt mouse model. Assay procedures and results are described below.
Nine 8-10 week old B6/JGpt-Trex1em1Cd1194/Gpt mice were acclimated to the lab for at least 5 days. Compound 2 was prepared daily in a 20% PEG400 (pH 3.5) solution for p.o. administration. Compound 2 was administered for 5 days.
(§1) Compound 2 was administered daily from Day 1 to Day 5. All mice were euthanized 1 hour after the last dose administration on Day 5. Heart and skin were harvested and snap frozen in liquid nitrogen, and plasma (EDTA) was collected for bioanalysis. Total RNA was isolated and ISG score for each sample was determined as in Part IIIa of Example 108.
Fifteen 6-8 week old B6/JGpt-Trex1em1Cd1194/Gpt mice were acclimated to the lab for at least 5 days. Compound 67 was prepared daily in a 20% PEG400 (pH 3.5) solution for p.o. administration. […] was administered for 5 days.
as §1, with “67” for “2”

[2] = test system: THP1-Dual KO-TREX1 xenograft tumors; assay: Altering IFN production in THP1 TREX1 KO xenografts; type: in vivo, CB-17 SCID female mice; conditions: decitabine 5 mg/kg IP, test compound 10, 30, or 100 mg/kg PO once daily for 4 days; tumors 24 h post-last dose; FIG. 6
Experimental: Exemplary compounds 2, 25 and 40 were tested for their ability to alter IFN levels in THP1-Dual™ KO-TREX1 xenografts in mice. Assay procedures are described below.
CB-17 SCID female mice were inoculated subcutaneously with 10 million THP1-Dual™ KO-TREX1 cells in 200 μl PBS with Matrigel (1:1) and grouped when tumor volume reached 350-400 mm^3. Mice bearing THP1-Dual™ KO-TREX1 xenograft tumors were then separated into 5 groups. Three groups were administered: (1) decitabine (DAC) at 5 mg/kg IP, once daily, for 4 days, and (2) test compound at 10, 30, or 100 mg/kg, PO, once daily, for 4 days. One group was administered decitabine (DAC) at 5 mg/kg IP, once daily, for 4 days, and the test compound vehicle control. The final group was administered the vehicle control from both the test compound and the vehicle control from decitabine. Decitabine is formulated in sterile PBS, pH 7.4, and Compound 2, 25, and 40 were formulated in 20% PEG400 in PBS.
Tumors were harvested 24 h post-last dose administered on day 4, ground in PBS at 50 Hz for 5 min, and kept on ice for 30 min while being vortexed every 5 min. […] Equal amounts of proteins were added to 96-well black plates, and luciferase signal was measured using the QUANTI-Luc™ detection medium according to manufacturer's instructions. Luminescence was measured using the EnVision® 2105 Multimode Plate Reader. […]

[3] = test system: THP1-Dual KO-TREX1 xenograft tumors; assay: Altering IFN production in THP1-Dual KO-TREX1 mouse xenografts (Compound 67); type: in vivo, CB-17 SCID female mice; conditions: decitabine 5 mg/kg SC, compound 0.3-100 mg/kg PO once daily for 5 days; tumors 4 h post-last dose; FIG. 9
Experimental: Exemplary Compound 67 was tested for its ability to alter IFN levels in THP1-Dual™ KO-TREX1 xenografts in mice. Assay procedures are described below.
CB-17 SCID female mice were inoculated subcutaneously with 10 million THP1-Dual™ KO-TREX1 cells in 200 μl PBS with Matrigel (1:1) and grouped at N=5 per treatment per sampling timepoint when tumor volume reached an average of 340 mm^3. Six groups were co-administered: (1) decitabine (DAC) at 5 mg/kg SC, once daily, for 5 days, and (2) test compound 67 at one of six doses (0.3 mg/kg PO, 1 mg/kg PO, 3 mg/kg PO, 10 mg/kg PO, 30 mg/kg PO, 100 mg/kg PO) once daily, for 5 days. Two additional groups were administered (1) decitabine and test compound vehicle control SC+PO, once daily, for 5 days, and (2) decitabine at 5 mg/kg SC, once daily, for 5 days. […]
Tumors were harvested 4 h post-last dose administered on day 5, grinded in PBS at 50 Hz for 5 min, kept on ice for 30 min while being vortexed every 5 min. […] Equal amounts of proteins were added to 96-well black plates, and luciferase signal was measured using the QUANTI-Luc™ detection medium according to manufacturer's instructions. Luminescence was measured using the EnVision® 2105 Multimode Plate Reader.
Experimental results are depicted in FIG. 9. […] In FIG. 9, IFN signal was measured in tumors harvested from mice 4 hours after the final decitabine and test compound dosing on day 5.

SMILES | ISG score in the heart and skin [1] | inhibition of DAC-induced IFN signal in THP1 tumors [2] | inhibition of DAC-induced IFN signal in THP1 tumors [3]
Nc1ccn([C@H]2C[C@H](O)[C@](CO)(CCl)O2)c(=O)n1 [Compound 2, 4-amino-1-((2R,4S,5R)-5-(chloromethyl)-4-hydroxy-5-(hydroxymethyl)tetrahydrofuran-2-yl)pyrimidin-2(1H)-one] | lowers the ISG score | potent inhibition of DAC-induced IFN signal | –
Nc1ccn([C@@H]2O[C@@](CO)(CCl)[C@@H](O)[C@@H]2F)c(=O)n1 [Compound 40, 4-amino-1-((2R,3S,4R,5R)-5-(chloromethyl)-3-fluoro-4-hydroxy-5-(hydroxymethyl)tetrahydrofuran-2-yl)pyrimidin-2(1H)-one] | – | potent inhibition of DAC-induced IFN signal | –
Nc1nc(=O)n([C@@H]2O[C@@](CO)(CCl)[C@@H](O)[C@@H]2F)cc1F [Compound 67, 4-amino-1-[(2R,3S,4R,5R)-5-(chloromethyl)-3-fluoro-4-hydroxy-5-(hydroxymethyl)oxolan-2-yl]-5-fluoropyrimidin-2-one] | lowers the ISG score | – | dose-response inhibition of DAC-induced IFN signal
